Data set [1] deals with influenza A/Swine/Iowa/30 (H1N1) virus. Format: cell-based. The settings on record: for Efficacy relative to commercially available oseltamivir: at similar or lower concentrations; for Antiviral activity relative to oseltamivir (Tamiflu): concentrations corresponding to 1/2 of CC50.
Data set [2] can be described thus: Cytotoxicity in vitro, MTT test on MDCK cell culture. The settings on record: dog. For orientation: Tetrazolium dyes change colour on reduction, which living cells bring about.
Data set [3] can be described thus: in vitro. The conditions noted are these: dog.

Converted amounts (≈) assume the structure as drawn. “Also recorded” adds a separate entry of the source. Where a name gives a salt, the structure may show the parent alone. Read-outs that look alike come from different tables or passages of the source.

Take `O=C(OC1(C(=O)O)CCN(Cc2ccccc2)CC1)C1CC1` [5c, Hydrochloride of 1-benzyl-4-cyclopropanoyloxy-piperidine-4-carboxylic acid]: the “Titre in HAU” value is 5.0 ± 0 log2 in data set [1] (0.058 mg/mL, PC titre 5.0 ± 0); 5.0 ± 0 log2 in data set [1] (0.116 mg/mL, PC titre 5.0 ± 0); 5.0 ± 0 log2 in data set [1] (0.231 mg/mL, PC titre 5.0 ± 0); 5.0 ± 0 log2 in data set [1] (0.463 mg/mL, PC titre 5.0 ± 0); 4.4 ± 0.6 log2 in data set [1] (0.925 mg/mL, PC titre 5.0 ± 0); 3.8 ± 1.1 log2 in data set [1] (1.850 mg/mL, PC titre 5.0 ± 0). In addition, the “Suppression of virus replication compared to the control group” value in data set [1] (1.85 mg/mL (maximum investigated concentration)) is 1.2 log2. For the same compound, in data set [1] (concentrations below 1.85 mg/mL), the “Antiviral effect at the other concentrations tested” value is recorded as “No statistically significant antiviral effect”. In addition, the “Level of antiviral activity relative to rimantadine” value in data set [1] (concentrations equivalent to 1/2 CC50) was “comparable to that of rimantadine”. In addition, the CC50 at 72 h in data set [2] is 3700 ± 189 µg/mL.
On to `O=C(ON=C1CCN(Cc2ccccc2)CC1)c1c(F)cccc1F` [compound 11, Hydrochloride of 1-benzyl-4-(2,6-difluoro-benzoyloxymino) piperidine], for which the “Titre in HAU” value in data set [1] (0.0020 mg/mL, PC titre 6.0 ± 0) worked out at 6.0 ± 0 log2; in data set [1] (0.0041 mg/mL, PC titre 6.0 ± 0), 6.0 ± 0 log2; in data set [1] (0.0081 mg/mL, PC titre 6.0 ± 0), 6.0 ± 0 log2; in data set [1] (0.0163 mg/mL, PC titre 6.0 ± 0), 6.0 ± 0 log2; in data set [1] (0.0325 mg/mL, PC titre 6.0 ± 0) it was 4.0 ± 0 log2; in data set [1] (0.0650 mg/mL, PC titre 6.0 ± 0) it was 4.0 ± 0 log2. Also, the “Inhibition of replication of 100 infectious doses compared to the control group” value in data set [1] (0.0650 and 0.0325 mg/mL) came to 2.0 log2. The “Efficacy relative to commercially available oseltamivir” value in data set [1] is recorded as “comparable efficacy”. Further, in data set [1], the “Antiviral activity relative to oseltamivir (Tamiflu)” value was “slightly inferior”. The CC50 at 72 h in data set [2] was determined as 130 ± 2 µg/mL.
As for `CCCN1CCC(O)(C(=O)O)CC1` [3b, Hydrochloride of 1-propyl-4-carboxy-4-hydroxypiperidine], the “Titre in HAU” value in data set [1] (0.15 mg/mL, PC titre 5.0 ± 0) turned out to be 5.0 ± 0 log2; in data set [1] (0.30 mg/mL, PC titre 5.0 ± 0), 5.0 ± 0 log2; in data set [1] (0.59 mg/mL, PC titre 5.0 ± 0) it was 5.0 ± 0 log2; in data set [1] (1.19 mg/mL, PC titre 5.0 ± 0), 5.0 ± 0 log2; in data set [1] (2.38 mg/mL, PC titre 5.0 ± 0), 4.4 ± 0.6 log2; in data set [1] (4.75 mg/mL, PC titre 5.0 ± 0), 4.0 ± 0 log2. The “Reduction of virus replication” value in data set [1] (4.75 mg/mL (maximum tested concentration)) amounted to 1.0 log2. The “Antiviral activity relative to oseltamivir (Tamiflu)” value in data set [1] was “slightly inferior; also recorded: significantly lower antiviral activity”. In addition, the CC50 at 72 h in data set [2] amounted to 9500 ± 364 µg/mL.
As to `CC(N)C12CC3CC(CC(C3)C1)C2` (stereo not shown) [Rimantadine, reference compound], the “Titre in HAU” value came to 4.2 ± 0.4 log2 in data set [1] (0.003 mg/mL, PC titre 6.0 ± 0); 4.2 ± 0.4 log2 in data set [1] (0.005 mg/mL, PC titre 6.0 ± 0); 4.2 ± 0.4 log2 in data set [1] (0.010 mg/mL, PC titre 6.0 ± 0); 4.2 ± 0.4 log2 in data set [1] (0.020 mg/mL, PC titre 6.0 ± 0); 4.2 ± 0.4 log2 in data set [1] (0.040 mg/mL, PC titre 6.0 ± 0); 4.2 ± 0.4 log2 in data set [1] (0.080 mg/mL, PC titre 6.0 ± 0). The compound further came in with a CC50 at 72 h in data set [3] of 160 ± 11 µg/mL (≈ 892 µM).
Consider `O=C(OC1CCN(Cc2ccccc2)CC1)c1ccc(C(F)(F)F)cc1` [compound 8, Hydrochloride of 1-benzyl-4-trifluoromethylbenzoyloxy-piperidine], for which the “Titre in HAU” value in data set [1] (0.0011 mg/mL, PC titre 6.0 ± 0) turned out to be 6.0 ± 0 log2; in data set [1] (0.0022 mg/mL, PC titre 6.0 ± 0), 6.0 ± 0 log2; in data set [1] (0.0044 mg/mL, PC titre 6.0 ± 0) it was 6.0 ± 0 log2; in data set [1] (0.0088 mg/mL, PC titre 6.0 ± 0) it was 5.0 ± 0 log2; in data set [1] (0.0175 mg/mL, PC titre 6.0 ± 0) it was 5.0 ± 0 log2; in data set [1] (0.0350 mg/mL, PC titre 6.0 ± 0), 4.0 ± 0 log2. Further, the “Reduction of viral load” value in data set [1] (0.035 mg/mL) turned out to be 2.0 log2; in data set [1] (0.0175 and 0.0088 mg/mL), 1.0 log2. The “Efficacy relative to commercially available oseltamivir” value in data set [1] is “comparable efficacy”. Also, the “Antiviral activity relative to oseltamivir (Tamiflu)” value in data set [1] was “slightly inferior”. Also, in data set [2], the CC50 at 72 h was 70 ± 5 µg/mL.
On to `CCOC(=O)C1=C[C@@H](OC(CC)CC)[C@H](NC(C)=O)[C@@H](N)C1` [Tamiflu, oseltamivir, reference compound], for which the “Titre in HAU” value in data set [1] (0.01 mg/mL, PC titre 5.0 ± 0) is 4.0 ± 0 log2; in data set [1] (0.02 mg/mL, PC titre 5.0 ± 0) it was 4.0 ± 0 log2; in data set [1] (0.04 mg/mL, PC titre 5.0 ± 0), 3.0 ± 0 log2; in data set [1] (0.08 mg/mL, PC titre 5.0 ± 0), 3.0 ± 0 log2; in data set [1] (0.17 mg/mL, PC titre 5.0 ± 0), 2.4 ± 0.5 log2; in data set [1] (0.33 mg/mL, PC titre 5.0 ± 0), 2.4 ± 0.5 log2. In addition, the “Reduction of viral load” value in data set [1] (0.02 and 0.01 mg/mL) is recorded as 1.0 log2; in data set [1] (0.08 and 0.04 mg/mL), 2.0 log2. Further, the “Reduction in the reproduction of 100 infectious doses of the virus” value in data set [1] (0.33 and 0.17 mg/mL) is on record as 2.6 log2. The same compound came in with a CC50 at 72 h in data set [2] of 660 ± 91 µg/mL (≈ 2110 µM).
`O=C(OC1(C(=O)O)CCN(CCc2ccccc2)CC1)C1CC1` [5d, Hydrochloride of 1-(2-phenylethyl)-4-cyclopropanoyloxy-piperidine-4-carboxylic acid]: the “Titre in HAU” value in data set [1] (0.0025 mg/mL, PC titre 6.0 ± 0) is reported as 6.0 ± 0 log2; in data set [1] (0.0050 mg/mL, PC titre 6.0 ± 0) it was 6.0 ± 0 log2; in data set [1] (0.0100 mg/mL, PC titre 6.0 ± 0), 6.0 ± 0 log2; in data set [1] (0.0200 mg/mL, PC titre 6.0 ± 0) it was 6.0 ± 0 log2; in data set [1] (0.0400 mg/mL, PC titre 6.0 ± 0) it was 4.8 ± 0.5 log2; in data set [1] (0.0800 mg/mL, PC titre 6.0 ± 0) it was 4.0 ± 0 log2. The “Reduction of virus replication” value in data set [1] (0.04 mg/mL) came out at 1.2 log2; in data set [1] (0.08 mg/mL) it was 2.0 log2. Also, the “Antiviral activity relative to oseltamivir (Tamiflu)” value in data set [1] is recorded as “slightly inferior”. Further, the CC50 at 72 h in data set [2] is 160 ± 6 µg/mL.
